Reference: patent US3937838A, “Orally active bronchospasmolytic compounds and their preparation” (priority 1966, dated 1976)
“Also recorded” adds a separate entry of the source.

Columns and labels:
bronchial asthma = assay: Clinical study in asthmatic patients (Example 6); assay type: in vivo, human
Description: All the patients were hospitalized for severe bronchial asthma. Before the patients were selected for the trial, spirometry was performed before and after isoprenaline inhalations to make sure that their obstruction was at least partly reversible by bronchodilating drugs. The tests were performed when the patients were in a relatively steady state of moderate asthmatic discomfort. Every morning during the trial control measurements of forced expiratory volume in one second (FEV1.0) were made. These values had to be less than 70% of the predicted normal value taking in consideration sex, age and heights. All the patients were under treatment of different drugs for their asthma. Other bronchodilating drugs were withdrawn at least 6 hours before the start of the measurements. Most of the patients were treated with steroids, antibiotics and expectorants before the start of the trial. This regimen was continued unchanged during the trial period.
Twenty-four took part in the study, 10 male and 14 female. Average age was 51 years (range 15-71 years), mean body weight 64 kg (range 44-88 kg.) and height 166 cm (range 150-187 cm).
The trial was performed as a double blind study during three consecutive days with the patients serving as their own control. […] The order of treatment was randomized according to the principle of Latin squares.
Lung function tests were made immediately before the administration of the tablets and after 1, 2, 3, 5 and 7 hours. FEV1.0 was measured using a Vitalograph spirometer. The highest value of three measurements on each occasion was used in the calculations. All the patients had been trained to perform the tests the day before the start of the trial. After 3 and 7 hours, the patients were questioned for side effects. The same, specially trained, nurse assisted throughout the whole investigation.
The "Student's" t-test was used for statistical evaluation of the results. The degree of significance for the differences is given as almost significant (p<0.05^x) significant (p<0.01^xx) and highly significant (p<0.001^xxx).

guinea pig trachea = assay: Bronchospasmolytic effect in vitro (Example 13); settings: based on ED50-values; weight basis; Table 7
Description: The trachea from a guinea pig was dissected out and spirally cut. It was mounted in a water-jacketed bath (37°C.) in Krebs solution and aerated with oxygen (95%) and carbon dioxide (5%). Pilocarpine (2 μg/ml) was added. The load was adjusted to about 2 g and relaxations in the trachea were recorded by means of a Grass force displacement transducer and a Grass polygraph model 5 (see Example 5 above). The cumulative method was used (-)-Epinephrine was used as reference. The comparisons presented in Table 7 are based on ED50 -values.

CC(C)(C)NCC(O)c1cc(O)cc(O)c1 (racemic) [terbutaline, 1-(3',5'-dihydroxyphenyl)-2-(t-butylamino)-ethanol]
maximum effect and duration of effect versus orciprenaline (bronchial asthma; 5 mg terbutaline versus 20 mg orciprenaline, oral): superior to 20 mg of orciprenaline
circulatory effects (bronchial asthma; oral): negligible circulatory effects
time of maximal response (FEV1.0) (bronchial asthma; oral single dose): 3 h
duration of action (bronchial asthma; oral, presumably): > 5 h
increase of FEV1.0 (bronchial asthma; oral, terbutaline 5.0 mg, orciprenaline 20 mg, FIG. 9): clearcut increase of the spirometric values; also recorded: significantly greater than that of orciprenaline; also recorded: effective in relaxing bronchial obstruction in asthmatic patients
bronchospasmolytic effect x (-)epinephrine (guinea pig trachea): 0.8 ± 0.1
